Earlier results on two compounds are cited in US8571804B2, “Disease treatment by predicting drug association” (Pharnext, priority 2007, dated 2013).

The subject of data set [1] is CMT animal models.
For data set [2], the system named is PMP22-transgenic CMT1A rat model.

Regarding `O=C1O[C@H]([C@@H](O)CO)C(O)=C1O` [ascorbic acid], in data set [1], the clinical features entry was “improve clinical features”.

For `CN(C)c1ccc([C@H]2C[C@]3(C)[C@@H](CC[C@]3(O)CCCO)[C@@H]3CCC4=CC(=O)CCC4=C32)cc1` [onapristone], the clinical symptoms entry in data set [2] (compared with placebo-treated controls) was “significantly improved clinical symptoms”. For the same compound, in data set [2] (transgenic rodents, antiprogestin treatment), the “expression of PMP22 protein” value is on record as “decreased expression of PMP22 protein”.
